Assay [1] relates to JAK2, TYK2/p-STAT4 (Tyr693) activated by IL-12 in NK-92 cell line. Briefly: IL-12-JAK2, TYK2/p-STAT4 (Tyr693) inhibition IC50 cellular assay. Format: cell-based. The following applies: for IC50: NK92, Cellular assay, read-out: pSTAT4/IL-12 IC50; for Selectivity fold (TYK2/JAK2): Cellular assay, pSTAT5/GM-CSF IC50 vs pSTAT4/IL-12 IC50. Put shortly:
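NK-92 cells were starved overnight without IL-2 and preincubated 1 h at 37° C with compound (8 doses, 10000–0.61 nM, 4-fold, 0.2% DMSO). They were then stimulated with IL-12 (40 ng/ml final) for 30 min. Lysate p-STAT4 (Tyr693) was read by AlphaLISA SureFire; IC50 from four-parameter logistic fit.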

The next assay relates to pSTAT5/GM-CSF. The experiment in a line: pSTAT5/GM-CSF cellular assay (JAK2 selectivity). As to conditions: for Selectivity fold (TYK2/JAK2): pSTAT5/GM-CSF IC50 over pSTAT4/IL-12 IC50. The class given is cell-based.
Assay [2] concerns the target T1, TYK2-JH2 (aa 575-869, in-house) protein (Homo sapiens, UniProt P29597).
T1 construct: TYK2-JH2 (aa 575-869, in-house) protein; made in house
The experiment in a line: TYK2-JH2 biochemical assay (HTRF probe displacement). Format: binding. The following applies: Biochemical assay; read-out: TYK2-JH2 IC50. Put shortly: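 Recombinant TYK2-JH2 (0.2 nM) was pre-incubated 0.5 h at room temperature with compounds (10 doses, 5-fold dilution; 500× DMSO stocks from 500 uM) in 20 mM HEPES pH 7.5, 10 mM MgCl2, 0.005% BSA, 2 mM DTT, 0.015% Brij-35. Probe displacement was read by HTRF (ex337, em620/665 nm); IC50 from four-parameter logistic fit.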

Structures are written as SMILES. A value given as a limit tells only on which side of the number the result lay.

From US20240043435A1, “TYK-2 INHIBITOR” (BEIGENE, LTD., priority 2020, published 2024) come the findings set out here.

T1 sequence (P29597 575-869): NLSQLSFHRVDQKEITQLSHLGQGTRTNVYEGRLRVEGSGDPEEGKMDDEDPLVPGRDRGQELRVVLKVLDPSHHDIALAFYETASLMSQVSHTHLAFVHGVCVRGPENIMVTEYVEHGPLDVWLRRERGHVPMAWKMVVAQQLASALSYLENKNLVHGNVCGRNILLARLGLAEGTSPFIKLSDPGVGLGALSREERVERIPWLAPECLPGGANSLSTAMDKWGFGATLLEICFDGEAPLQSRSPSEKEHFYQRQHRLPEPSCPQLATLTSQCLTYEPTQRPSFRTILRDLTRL

Regarding `CC(=O)Nc1cc(Nc2cc(O[C@H]3C[C@H](O)C3)cc(S(C)(=O)=O)n2)c(-c2ccn(C)n2)cn1` [Example J16, N-(4-((4-((trans)-3-hydroxycyclobutoxy)-6-(methylsulfonyl)pyridin-2-yl)amino)-5-(1-methyl-1H-pyrazol-3-yl)pyridin-2-yl)acetamde], the values for the IC50 (in assay [1]; in the assay on pSTAT5/GM-CSF; in assay [2]) were 2.52 nM, greater than 10000 nM and 0.015 nM, respectively. The “Selectivity fold (TYK2/JAK2)” value with pSTAT5/GM-CSF is listed as greater than 3968 fold.
For `CC(=O)Nc1cc(Nc2cc(O[C@H]3C[C@@H](O)C3)cc(S(C)(=O)=O)n2)c(-c2ccn(C)n2)cn1` [Example J17, N-(4-((4-((cis)-3-hydroxycyclobutoxy)-6-(methylsulfonyl)pyridin-2-yl)amino)-5-(1-methyl-1H-pyrazol-3-yl)pyridin-2-yl)acetamide], the IC50 in assay [1] is 6.8 nM; in the assay on pSTAT5/GM-CSF, greater than 10000 nM; in assay [2] it was 0.043 nM. Besides, in the assay with pSTAT5/GM-CSF, the “Selectivity fold (TYK2/JAK2)” value is given as greater than 1470 fold.
With `CCOc1cc(Nc2cc(NC(C)=O)ncc2-c2ccn(CC)n2)nc(S(C)(=O)=O)c1` [Example M18, N-(4-((4-ethoxy-6-(methylsulfonyl)pyridin-2-yl)amino)-5-(1-ethyl-1H-pyrazol-3-y)pyridin-2-yl)acetamide], the IC50 in assay [1] was 0.989 nM; in the assay with pSTAT5/GM-CSF, greater than 10000 nM; in assay [2] it was 0.026 nM. Moreover, the “Selectivity fold (TYK2/JAK2)” value with pSTAT5/GM-CSF is recorded as greater than 10111 fold.
For `CC(=O)Nc1cc(Nc2cc(C#N)cc(S(C)(=O)=O)n2)c(-c2ccc3c(n2)OCC(C)(C)O3)cn1` [Example Q63, N-(4-((4-cyano-6-(methylsulfonyl)pyridin-2-yl)amino)-5-(2,2-dimethyl-2,3-dihydro-[1,4]dioxino[2,3-b]pyridin-6-yl)pyridin-2-yl)acetamide], in that order: 0.755 nM, 459 nM, 0.051 nM and 608 fold.
Consider `CC(=O)Nc1cc(Nc2cc(C)cc(S(C)(=O)=O)n2)c(-c2ccc(F)cn2)cn1` [Example F17, N-(5-fluoro-4′-((4-methyl-6-(methylsulfonyl)pyridin-2-yl)amino)-[2,3′-bipyridin]-6′-yl)acetamide], for which, in assay [1], the “Selectivity fold (TYK2/JAK2)” value is given as greater than 8000 fold. Moreover, the IC50 is 1.25 nM in assay [1], greater than 10000 nM with pSTAT5/GM-CSF and 0.054 nM in assay [2].
Regarding `CC(=O)Nc1cc(Nc2cc(C3CCOCC3)cc(S(C)(=O)=O)n2)c(-c2ccn(C)n2)cn1` [Example J61, N-(5-(1-methyl-1H-pyrazol-3-yl)-4-((6-(methylsulfonyl)-4-(tetrahydro-2H-pyran-4-yl)pyridin-2-yl)amino)pyridin-2-yl)acetamide], the IC50 in assay [1] was 1.42 nM; with pSTAT5/GM-CSF, greater than 10000 nM; in assay [2], 0.019 nM. In addition, in the assay with pSTAT5/GM-CSF, the “Selectivity fold (TYK2/JAK2)” value is on record as greater than 7042 fold.
The like results for `CCn1ccc(-c2cnc(NC(C)=O)cc2Nc2cc(OCCOC)cc(S(C)(=O)=O)c2)n1` [Example M14, N-(5-(1-ethyl-1H-pyrazol-3-yl)-4-((3-(2-methoxyethoxy)-5-(methylsulfonyl)phenyl)amino)pyridin-2-yl)acetamide] were, in that order, 9.46 nM, greater than 10000 nM, 0.03 nM and greater than 1057 fold.
Turning to `COC1CC(Oc2cc(Nc3cc(NC(C)=O)ncc3-c3ccc(C(C)(C)O)cn3)nc(S(C)(=O)=O)c2)C1` (stereo not shown) [Example H29, N-(5-(2-hydroxypropan-2-yl)-4′-((4-(3-methoxycyclobutoxy)-6-(methylsulfonyl)pyridin-2-yl)amino)-[2,3′-bipyridin]-6′-yl)acetamide], the “Selectivity fold (TYK2/JAK2)” value in assay [1] is 4797 fold. In addition, the values for the IC50 (in assay [1]; in the assay with pSTAT5/GM-CSF; in assay [2]) were 1.77 nM, 8490 nM and 0.022 nM, respectively.
The like results for `COCCOc1ccc(-c2cnc(NC(C)=O)cc2Nc2cc(OC[C@@H](C)OC)cc(S(C)(=O)=O)n2)nc1` [Example D7, (R)-N-(5-(2-methoxyethoxy)-4′-((4-(2-methoxypropoxy)-6-(methylsulfonyl)pyridin-2-yl)amino)-[2,3′-bipyridin]-6′-yl)acetamide] were, in that order, greater than 12422 fold, 0.805 nM, greater than 10000 nM and 0.031 nM.
For `CC(=O)Nc1cc(Nc2cc(OCC3COC3)cc(S(C)(=O)=O)n2)c(-c2ccc(C(C)(C)O)cn2)cn1` [Example H12, N-(5-(2-hydroxypropan-2-yl)-4′-((6-(methylsulfonyl)-4-(oxetan-3-ylmethoxy)pyridin-2-yl)amino)-[2,3′-bipyridin]-6′-yl)acetamide], in that order: greater than 1960 fold, 5.1 nM, greater than 10000 nM and 0.022 nM.
Take `CC(=O)Nc1cc(Nc2cc(-c3cnccc3C)cc(S(C)(=O)=O)n2)c(-c2ccc3c(n2)OCC(C)(C)O3)cn1` [Example Q62, N-(5-(2,2-dimethyl-2,3-dihydro-[1,4]dioxino[2,3-b]pyridin-6-yl)-4-((4-methyl-6′-(methylsulfonyl)-[3,4′-bipyridin]-2′-yl)amino)pyridin-2-yl)acetamide]: the IC50 in assay [1] is 1.79 nM; in the assay on pSTAT5/GM-CSF, greater than 10000 nM; in assay [2], 0.047 nM. Moreover, the “Selectivity fold (TYK2/JAK2)” value in the assay with pSTAT5/GM-CSF was greater than 5586 fold.
For the compound `CC(=O)Nc1cc(Nc2cc(OC(C)C)cc(S(C)(=O)=O)n2)c(-c2cccc(C#N)n2)cn1` [Example A16, N-(6-cyano-4′-((4-isopropoxy-6-(methylsulfonyl)pyridin-2-yl)amino)-[2,3′-bipyridin]-6′-yl)acetamide], the “Selectivity fold (TYK2/JAK2)” value in assay [1] is given as greater than 14992 fold. Moreover, the IC50 in assay [1] was 0.667 nM; with pSTAT5/GM-CSF, greater than 10000 nM; in assay [2] it was 0.021 nM.
In the case of `CC(=O)Nc1cc(Nc2cc(OCCO)cc(S(C)(=O)=O)n2)c(-c2ccc(C(F)(F)F)cn2)cn1` [Example F12, N-(4′-((4-(2-hydroxyethoxy)-6-(methylsulfonyl)pyridin-2-yl)amino)-5-(trifluoromethyl)-[2,3′-bipyridin]-6′-yl)acetamide], the “Selectivity fold (TYK2/JAK2)” value in assay [1] was greater than 7407 fold. Further, the IC50 was 1.35 nM in assay [1], greater than 10000 nM in the assay on pSTAT5/GM-CSF and 0.034 nM in assay [2].
Turning to `CC(=O)Nc1cc(Nc2cccc(S(C)(=O)=O)c2)c(-c2ccn(C3CCOC3)n2)cn1` (stereo not shown) [Example M30, N-(4-((3-(methylsulfonyl)phenyl)amino)-5-(1-(tetrahydrofuran-3-yl)-1H-pyrazol-3-yl)pyridin-2-yl)acetamide], the results for the IC50 (in assay [1]; in the assay on pSTAT5/GM-CSF; in assay [2]) were 11.2 nM, greater than 10000 nM and 0.049 nM, respectively. Further, in the assay on pSTAT5/GM-CSF, the “Selectivity fold (TYK2/JAK2)” value is on record as greater than 892 fold.
For `CCS(=O)(=O)c1cccc(Nc2cc(NC(C)=O)ncc2-c2ccn(C)n2)n1` [Example J5, N-(4-((6-(ethylsulfonyl)pyridin-2-yl)amino)-5-(1-methyl-1H-pyrazol-3-yl)pyridin-2-yl)acetamide], in that order: 2.05 nM, greater than 10000 nM, 0.022 nM and greater than 4878 fold.
As for `COCCOc1ccc(-c2cnc(NC(C)=O)cc2Nc2cccc(S(C)(=O)=O)c2)nc1` [Example D2, N-(5-(2-methoxyethoxy)-4′-((3-(methylsulfonyl)phenyl)amino)-[2,3′-bipyridin]-6′-yl)acetamide], the “Selectivity fold (TYK2/JAK2)” value in assay [1] is recorded as greater than 641 fold. In addition, the IC50 in assay [1] was 15.6 nM; in the assay on pSTAT5/GM-CSF it was greater than 10000 nM; in assay [2] it was 0.038 nM.
Regarding `CC(=O)Nc1cc(Nc2cccc(S(C)(=O)=O)n2)c(-c2cc(N3CCOCC3)n(C)n2)cn1` [Example O1, N-(5-(1-methyl-5-morpholino-1H-pyrazol-3-yl)-4-((6-(methylsulfonyl)pyridin-2-yl)amino)pyridin-2-yl)acetamide], the IC50 in assay [1] stood at 0.414 nM; in the assay with pSTAT5/GM-CSF, 1210 nM; in assay [2] it was 0.017 nM. Also, the “Selectivity fold (TYK2/JAK2)” value in the assay on pSTAT5/GM-CSF came out at 2929 fold.
Turning to `[2H]C([2H])([2H])Oc1cc(Nc2cc(NC(C)=O)ncc2-c2ccc(N3C[C@@H](C)O[C@@H](C)C3)cn2)nc(S(C)(=O)=O)c1` [Example C17, N-(5-((cis)-2,6-dimethylmorpholino)-4′-((4-(methoxy-d3)-6-(methylsulfonyl)pyridin-2-yl)amino)-[2,3′-bipyridin]-6′-yl)acetamide], in assay [1], the “Selectivity fold (TYK2/JAK2)” value is recorded as greater than 16528 fold. Further, the IC50 in assay [1] is 0.605 nM; with pSTAT5/GM-CSF, greater than 10000 nM; in assay [2] it was 0.022 nM.
On to `CC(=O)Nc1cc(Nc2cc(OCC(C)O)cc(S(C)(=O)=O)n2)c(-c2cc(N3CCOCC3)n(C)n2)cn1` (stereo not shown) [Example O3, N-(4-((4-(2-hydroxypropoxy)-6-(methylsulfonyl)pyridin-2-yl)amino)-5-(1-methyl-5-morpholino-1H-pyrazol-3-yl)pyridin-2-yl)acetamide], for which the figures for the IC50 (in assay [1]; in the assay on pSTAT5/GM-CSF; in assay [2]) were 6.86 nM, 8300 nM and 0.031 nM, respectively. Also, the “Selectivity fold (TYK2/JAK2)” value in the assay with pSTAT5/GM-CSF is on record as 2109 fold.
